Experimental data published in PubChem BioAssay (NCI).
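All cell lines were grown in 96-well plates and treated with compound for 48 hours. Here, GI50 denotes the concentration required for 50% inhibition of growth. The concentration for full growth arrest is given as TGI.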

Key:
Test in all cases: NCI tumour cell line growth inhibition, 48 h
[1] = system: HCC-2998 colon
[2] = system: SK-OV-3 ovarian
[3] = system: CCRF-CEM leukemia
[4] = system: NCI-H522 lung
[5] = system: SK-MEL-28 melanoma
[6] = system: MDA-MB-435
[7] = system: OVCAR-5 ovarian
[8] = system: NCI-H226 lung
[9] = system: SF-295 CNS
[10] = system: SW-620 colon

Structure (SMILES) | GI50 [1] | TGI [1] | GI50 [2] | TGI [2] | GI50 [3] | TGI [3] | GI50 [4] | TGI [4] | GI50 [5] | TGI [5] | GI50 [6] | TGI [6] | GI50 [7] | TGI [7] | GI50 [8] | TGI [8] | GI50 [9] | TGI [9] | GI50 [10] | TGI [10]
CC/C(=C/c1ccc(OC)cc1)[N+](=O)[O-] | 1.89 µM | 3.42 µM | 14.4 µM | 27.5 µM | 1.96 µM | 5.72 µM | 1.56 µM | 3.06 µM | 1.68 µM | 3.44 µM | 1.68 µM | 3.6 µM | 2.34 µM | 6.08 µM | 2.07 µM | 3.86 µM | 11.3 µM | 23.3 µM | 1.93 µM | 3.85 µM
N#Cc1ccc2c(-c3ccnc(NC4CC4)n3)c(-c3ccc(F)cc3)nn2c1 | > 25 µM | > 25 µM | 22.4 µM | > 25 µM | > 25 µM | > 25 µM | > 25 µM | > 25 µM | > 25 µM | > 25 µM | > 25 µM | > 25 µM | > 25 µM | > 25 µM | > 25 µM | > 25 µM | > 25 µM | > 25 µM | > 25 µM | > 25 µM
NS(=O)(=O)c1cccc(Nc2cc(-c3ccc(F)cc3)[nH]n2)c1 | > 25 µM | > 25 µM | 13.2 µM | > 25 µM | 23 µM | > 25 µM | > 25 µM | > 25 µM | > 25 µM | > 25 µM | > 25 µM | > 25 µM | > 25 µM | > 25 µM | > 25 µM | > 25 µM | > 25 µM | > 25 µM | > 23.2 µM | > 25 µM
O=C1c2ccccc2-c2cn(Cc3ccccc3)c3cccc(c23)C1c1cccnc1 (stereo not given) | 11.4 µM | > 50 µM | 5.38 µM | > 50 µM | 2.62 µM | > 50 µM | 2.28 µM | 33.4 µM | 4.12 µM | > 50 µM | 1.32 µM | 6.13 µM | > 50 µM | > 50 µM | > 50 µM | > 50 µM | 2.02 µM | > 50 µM | 1.88 µM | > 50 µM
COC(=O)c1sc(-n2cnc3cc(OC)c(OC)cc32)cc1OCc1ccccc1C(F)(F)F | > 25 µM | > 25 µM | > 21.5 µM | > 25 µM | > 25 µM | > 25 µM | 17.7 µM | > 25 µM | > 25 µM | > 25 µM | > 25 µM | > 25 µM | > 25 µM | > 25 µM | > 25 µM | > 25 µM | > 23.6 µM | > 25 µM | > 25 µM | > 25 µM
COc1oc(C2C/C(=C/C(C)=C/C(C)=C/C(C)=C/c3ccc([N+](=O)[O-])cc3)CO2)c(C)c(=O)c1C (stereo not given) | – | > 100 µM | – | > 63.5 µM | – | 23.5 µM | – | 15.5 µM | – | > 60.5 µM | – | 42.4 µM | – | > 100 µM | – | > 54.3 µM | – | 34.7 µM | – | > 100 µM
